Counter-ions that a name gives are not always drawn.

With `CCC1(NC(=O)c2cnn3c2NC(c2ccccc2)CC3(C)C)CCCCC1` (stereo not drawn) [Example 431, N-(1-ethylcyclohexyl)-7,7-dimethyl-5-phenyl-4,5,6,7-tetrahydropyrazolo[1,5-a]pyrimidine-3-carboxamide], the melting point (commonly the temperature, or range, at which the solid turns liquid) fell in the range of 166 to 167 °C. `CCC(CC)(NC(=O)c1cnn2c1NC(c1ccccc1)CC2(CC)CC)c1ccc(C(F)(F)F)cc1` (stereo not drawn) [Example 185, 7,7-diethyl-N-(1-ethyl-1-(4-(trifluoromethyl)phenyl)propyl)-5-phenyl-4,5,6,7-tetrahydropyrazolo[1,5-a]pyrimidine-3-carboxamide] registered a melting point of 174 to 175 °C. As for `CCOC(=O)c1cnn2c1NC(c1ccc3ccccc3c1)CC2C(F)(F)F` (stereo not drawn) [Example 2, ethyl 5-(2-naphthyl)-7-(trifluoromethyl)-4,5,6,7-tetrahydropyrazolo[1,5-a]pyrimidine-3-carboxylate], the figure is 120 to 122 °C; as for `CCC(CC)(NC(=O)c1cnn2c1NC(c1ccccc1)CC2(C)C)c1ccc(OCC(=O)O)cc1` (stereo not drawn) [Example 731, (4-(1-(((7,7-dimethyl-5-phenyl-4,5,6,7-tetrahydropyrazolo[1,5-a]pyrimidin-3-yl)carbonyl)amino)-1-ethylpropyl)phenoxy)acetic acid], 213 to 214 °C; as for `CCC(CC)(NC(=O)c1cnn2c1NC(c1ccccc1)CC2(C)C)c1cc(-c2ccc(F)cc2)n(C)n1` (stereo not drawn) [Example 726, N-(1-ethyl-1-(5-(4-fluorophenyl)-1-methyl-1H-pyrazol-3-yl)propyl)-7,7-dimethyl-5-phenyl-4,5,6,7-tetrahydropyrazolo[1,5-a]pyrimidine-3-carboxamide], 218 to 219 °C. On to `Cc1nn2c(c1C(=O)NC(C)(C)c1ccc(Cl)cc1)NC(c1ccccc1)CC2(C)C` (stereo not drawn) (as salt: HCl) [Example 792, N-(1-(4-chlorophenyl)-1-methylethyl)-2,7,7-trimethyl-5-phenyl-4,5,6,7-tetrahydropyrazolo[1,5-a]pyrimidine-3-carboxamide], for which the melting point was in the range of 204 to 205 °C. As for `CCC(CC)(NC(=O)c1cnn2c1NC(c1ccccc1)CC2(C)C)c1ccc(C(=O)OC(C)C)cc1` (stereo not drawn) [Example 733, isopropyl 4-(1-(((7,7-dimethyl-5-phenyl-4,5,6,7-tetrahydropyrazolo[1,5-a]pyrimidin-3-yl)carbonyl)amino)-1-ethylpropyl)benzoate], the figure is 205 to 206 °C; as for `O=C(NC12CC3CC(CC(C3)C1)C2)c1cnn2c1NC(c1ccccc1Cl)CC2C(F)(F)F` (stereo not drawn) [Example 281, N-(1-adamantyl)-5-(2-chlorophenyl)-7-(trifluoromethyl)-4,5,6,7-tetrahydropyrazolo[1,5-a]pyrimidine-3-carboxamide], 256 to 257 °C; as for `CCC1(NC(=O)c2cnn3c2NC(c2ccccc2)CC3(C)C)CCOCC1` (stereo not drawn) [Example 582, N-(4-ethyltetrahydro-2H-pyran-4-yl)-7,7-dimethyl-5-phenyl-4,5,6,7-tetrahydropyrazolo[1,5-a]pyrimidine-3-carboxamide], 104 to 105 °C.

Regarding `COc1cccc(C2CC(C(F)(F)F)n3ncc(C(=O)NC45CC6CC(CC(C6)C4)C5)c3N2)c1` (stereo not drawn) [Example 280, N-(1-adamantyl)-5-(3-methoxyphenyl)-7-(trifluoromethyl)-4,5,6,7-tetrahydropyrazolo[1,5-a]pyrimidine-3-carboxamide], the melting point was 211 to 212 °C. As for `CCC(CC)(NC(=O)c1cnn2c1NC(c1ccccc1OC)CC2(C)C)c1ccc(F)cc1` (stereo not drawn) [Example 600, N-(1-ethyl-1-(4-fluorophenyl)propyl)-5-(2-methoxyphenyl)-7,7-dimethyl-4,5,6,7-tetrahydropyrazolo[1,5-a]pyrimidine-3-carboxamide], the figure is 206.2 to 206.3 °C. As for `CCC(CC)(NC(=O)c1cnn2c1NC(c1ccccc1)CC2(C)C)c1ccc(O)cc1` (stereo not drawn) [Example 701, N-(1-ethyl-1-(4-hydroxyphenyl)propyl)-7,7-dimethyl-5-phenyl-4,5,6,7-tetrahydropyrazolo[1,5-a]pyrimidine-3-carboxamide], the figure is 152 to 153 °C.

(Values after patent publication US9447100B2, “Substituted pyrazolo[1,5-A] pyrimidines as calcium receptor modulating agents” (Takeda Pharmaceutical Company Limited, priority 2002, dated 2016).)
